{"source": "patent US20250064983A1", "about": "“COMPOSITIONS AND METHODS FOR TREATING A CARDIAC DISEASE” (The Children's Medical Center Corporation, priority 2022, published 2025)", "key": {"Tbx5 knockout mice": {"system": "Tbx5 knockout mice", "assay": "Example 5: beat-to-beat variability (EKG) in Tbx5 knockout mice (AF model)", "type": "in vivo, mouse", "text": "(§1) Two different atrial fibrillation (AF) mouse models were used to test the efficacy of AIP×5 at treating AF of different origins. The two different AF mouse models were liver kinase B1 (LKB1) knock out mice and T-box transcription factor 5 (Tbx5) knock out mice.\n(§2) LKB1-floxed or Tbx5-floxed mice were used to test the efficacy of AIP×5. AAV-NPPA-Cre was then used to conditionally knock out LKB1 or Tbx5 from the atria of the mice. NPPA is an atria specific promoter, ensuring that Cre recombinase directed knockout of LKB1 or Tbx5 was restricted to the atria. AAV-NPPA-FP (fluorescent protein) was used as a control virus. AAV-NPPA-FP has no Cre, and therefore the gene of interest is not knocked out. Uninjected mice were also included as a control to account for any effects caused by AAV injections. AAV-cTnT-AIP×5 or AAV-cTnT-CN19o were both tested as potential therapies to AF.\n(§3) In short, P3 LKB1-floxed or Tbx5-floxed mice were injected (or not injected in the uninjected controls), and then EKG measurements of the mice were taken every two weeks starting at P14. At 12 weeks, the mice were sacrificed, and the sacrificed mice were tested for protein expression.\nAF was calculated using the standard deviation of the beat-to-beat timing differences. A high beat-to-beat variability when sedated was indicative of atrial misfiring. […]"}, "LKB1 knockout mice": {"system": "LKB1 knockout mice", "assay": "Example 5: beat-to-beat variability (EKG) in LKB1 knockout mice (AF model)", "type": "in vivo, mouse", "text": "as §1, §2, §3\nAF was calculated using the standard deviation of the beat-to-beat timing differences. A high beat-to-beat variability when sedated was indicative of atrial misfiring.\nStatistical significance in the tests illustrated in FIGS. 10 and 11 was conducted using a 2-way Anova with post-hoc Dunnett's multiple comparisons to control (FP) group."}, "CaMKII": {"system": "CaMKII", "assay": "phosphorylation of phospholamban (PLB) at threonine-17 in whole heart lysates exposed to isoproterenol", "type": "in vivo, mouse", "settings": "exposed to isoproterenol (ISO), FIG. 3", "protocol": "FIG. 3 provides a chart, a capillary Western image, and a plot showing the effects of the indicated constructs, which are described in FIG. 2D, on CaMKII activity in vivo. To confirm suppression of CaMKII activation in vivo, phosphorylation of phospholamban (PLB) at threonine-17, a known target of CaMKII, was analyzed from whole heart lysates. The middle panel of FIG. 3 provides a capillary Western image showing glyceraldehyde-3-phosphate dehydrogenase polypeptide (GAPDH) expression in cells contacted (+) or not contacted (−) with isoproterenol (ISO), as well as the levels of phosphorylated PLB (pPLB) and non-phosphorylated PLB (PLB). The right panel of FIG. 3 provides a plot showing the ratio of pPLB to PLB in hearts treated with no ISO or with ISO and mCherry (the “ISO” sample), AIP, AIP×5, AIP-FKBP12.6, CN19o, CN19oX3, or CN19o-FKBP12.6, which are described in FIG. 2D.\nTo confirm suppression of CaMKII activation in vivo, phosphorylation of phospholamban (PLB) at threonine-17, a known target of CaMKII, was evaluated in heart tissue from mice and whole heart lysates exposed to isoproterenol (ISO) (FIG. 3). Exposure of cardiac cells to ISO induced phosphorylation of PLB by CaMKII (FIG. 3)."}, "[1]": {"system": "RYR2^R4650I/WT mouse model of CPVT", "assay": "ectopy and induced VT in RYR2^R4650I/WT mouse model of CPVT, AAV delivery", "type": "in vivo", "text": "FIGS. 2A-2G provide plots, a protein structure, schematics, a bar graph, and images showing how a therapeutic cargo containing a CaMKII inhibitor was optimized to treat catecholaminergic polymorphic ventricular tachycardia (CPVT) through altering potency, binding, and/or multimerization of the CaMKII inhibitor. FIG. 2A provides plots showing the IC50 concentrations for the autocamtide-2-related inhibitory peptide (AIP) and CN19o (Coultrap, et al. “Improving a Natural CaMKII Inhibitor by Random and Rational Design,” PLoS One, Oct. 3, 2011, doi.org/10.1371/journal.pone.0025245; and Ishida, et al, “Critical amino acid residues of AIP, a highly specific inhibitory peptide of calmodulin-dependent protein kinase II,” FEBS Letters, 427:115-118 (1998), the disclosures of which is incorporated herein by reference in its entirety for all purposes). […]\nThe development of improved agents for the treatment of CPVT, the CPVT treatment efficacy of polypeptides A) containing multiple repeats of AIP (FIG. 2C) or the potent CaMKII inhibitor CN19o or B) containing AIP or CN19o fused to FKBP12.6 (FIG. 2B), which binds RYR2, which is a target of CaMKII (FIG. 1A). […] The efficacy of the polypeptides in treatment of catecholaminergic polymorphic ventricular tachycardia (CPVT) was evaluated in the RYR2^R4650I/WT mouse model of CPVT as shown in FIG. 2D. […]"}}, "note": "Entries after “also recorded” stand apart in the source; their conditions may differ."}
{"sequence": "YKKALHRQEAVDALYKKALHRQEAVDALYKKALHRQEAVDALYKKALHRQEAVDALYKKALHRQEAVDAL [AIP×5]", "values": [{"measurement": "suppression of beat-to-beat variability", "setting": "Tbx5 knockout mice; AAV-cTnT vector, FIG. 11", "value": "reduction in beat-to-beat variability; also recorded: effective in suppressing beat-to-beat variability"}, {"measurement": "beat-to-beat variability, statistical difference to control", "setting": "Tbx5 knockout mice; after week 4", "value": "no statistically significant difference in beat-to-beat variability"}, {"measurement": "beat-to-beat variability compared to control (non-LKB1 knockout) mice", "setting": "LKB1 knockout mice; 2-way Anova with Dunnett's", "value": "no statistically significant difference in beat-to-beat variability"}, {"measurement": "suppression of beat-to-beat variability", "setting": "LKB1 knockout mice; AAV-cTnT vector, FIG. 10", "value": "reduction in beat-to-beat variability; also recorded: effective in suppressing beat-to-beat variability"}, {"measurement": "PLB phosphorylation (pPLB to PLB)", "setting": "CaMKII", "value": "statistically significant decrease in PLB phosphorylation"}, {"measurement": "percent of mice that showed induced ventricular tachycardia (VT)", "setting": "[1]; AAV vector (FIG. 2F)", "value": "reduction in instances of induced VT"}, {"measurement": "percent ectopy / CPVT treatment efficacy", "setting": "[1]; RYR2^R4650I/WT mice, AAV vector (FIG. 2E, 2F)", "value": "greatest reduction in instances of ectopy; also recorded: most effective in treating CPVT"}]}
